In ChEMBL document CHEMBL6087480, “In Search for Inhibitors of Human Aldo-Keto Reductase 1B10 (AKR1B10) as Novel Agents to Fight Cancer and Chemoresistance: Current State-of-the-Art and Prospects” (J Med Chem, 2025):

What was measured:
[1] = target: T1, Aldo-keto reductase family 1 member B1 (Homo sapiens, UniProt P15121); assay: Inhibition of human recombinant AKR1B1
[2] = target: T2, Aldo-keto reductase family 1 member B10 (Homo sapiens, UniProt O60218); assay: Inhibition of AKR1B10 (unknown origin)
T2 sequence (O60218 whole entry): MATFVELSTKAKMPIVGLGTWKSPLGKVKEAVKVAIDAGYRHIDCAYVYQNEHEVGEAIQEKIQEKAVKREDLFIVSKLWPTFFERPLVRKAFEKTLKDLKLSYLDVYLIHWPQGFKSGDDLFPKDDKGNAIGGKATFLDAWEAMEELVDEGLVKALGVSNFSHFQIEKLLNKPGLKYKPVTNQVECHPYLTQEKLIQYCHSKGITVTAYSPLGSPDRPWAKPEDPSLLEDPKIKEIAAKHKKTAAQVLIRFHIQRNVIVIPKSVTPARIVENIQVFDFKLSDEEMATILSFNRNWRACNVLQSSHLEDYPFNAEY

[3] = target: T1, Aldo-keto reductase family 1 member B1; assay: Inhibition of AKR1B1 (unknown origin)
[4] = target: T1, Aldo-keto reductase family 1 member B1; assay: Inhibition of human recombinant AKR1B1 by fluorescence based analysis
[5] = target: T2, Aldo-keto reductase family 1 member B10; assay: Inhibition of human recombinant AKR1B10
[6] = target: T1, Aldo-keto reductase family 1 member B1; assay: Inhibition of N-terminal 6his-tagged wild type human recombinant AKR1B1 extracted from Escherichia coli BL21 (DE3) by fluorescence based analysis

SMILES | IC50 [2] | IC50 [3] | also measured
COc1cc(/C=C/C(=O)CC(=O)/C=C/c2ccc(O)cc2)ccc1O | – | – | IC50 [1]: 1.2 µM
COc1ccc(OC)c(/N=c2\oc3cc(O)ccc3cc2C(=O)Nc2ccccn2)c1 | 0.02 µM | – | –
COc1ccc(/N=c2\oc3cc(O)ccc3cc2C(=O)Nc2cccc(C)n2)cc1OC | 0.03 µM | – | –
COc1ccc(/N=c2\oc3cc(O)ccc3cc2C(=O)Nc2ccccn2)c(OC)c1 | 0.01 µM | – | –
COc1ccc(/N=c2\oc3cc(O)ccc3cc2C(=O)Nc2ccccn2)cc1 | 0.5 µM | – | –
C[C@]12CCC(=O)C[C@@H]1CC[C@@H]1[C@@H]2CC[C@]2(C)C(=O)CC[C@@H]12 | 0.39 µM | 25 µM | –
CC1=C(CC(=O)O)c2cc(F)ccc2/C1=C\c1ccc([S+](C)[O-])cc1 (stereo not given) | – | – | IC50 [4]: 0.21 µM; IC50 [5]: 0.35 µM
O=C(O)Cn1ccc(=O)n(Cc2ccc(Cl)c([N+](=O)[O-])c2)c1=O | 21.6 µM | 10 µM | –
Cc1c2cc(O)c(=O)cc-2oc2cc(O)c(O)cc12 | 0.4 µM | – | –
COc1cc(O)ccc1/C=C/C(=O)OCCc1ccccc1 | 0.01 µM | – | –
COc1cc(O)ccc1/C=C/C(=O)OCCCc1ccccc1O | 0.1 µM | – | –
COc1cc(O)ccc1/C=C/C(=O)OCCCc1cccc(O)c1 | 0.5 µM | – | –
CC(C)=CCc1c(O)cc2oc3cc(O)c(O)c(CC=C(C)C)c3c(=O)c2c1O | – | – | IC50 [1]: 0.29 µM
O=C(/C=C/c1ccc(O)c(O)c1)O[C@H]1C[C@@](O)(C(=O)O)C[C@H](O)[C@@H]1O | 7.9 µM | – | –
CC(C)=CCC1=C(O)[C@](O)(CC=C(C)C)C(=O)C(C(=O)CC(C)C)=C1O | 1.94 µM | > 125 µM | –
C=CCc1cc(-c2cccc(CC=C)c2O)ccc1O | – | – | IC50 [1]: 36 µM
O=C(NCCCc1cccc(O)c1)c1cc2ccc(O)cc2oc1=O | 0.8 µM | – | –
CC(=O)[C@H]1CC[C@H]2[C@@H]3CC[C@H]4CC(=O)CC[C@]4(C)[C@H]3CC[C@]12C | 0.44 µM | 13 µM | –
COc1cc(O)c(CC=C(C)C)c2c1C(=O)C[C@@H](c1ccc(O)cc1)O2 | 1.09 µM | 0.57 µM | –
CC(=O)[C@H]1CC[C@H]2[C@@H]3CC[C@@H]4CC(=O)CC[C@]4(C)[C@H]3CC[C@]12C | 0.78 µM | 9 µM | –
C[C@@]12CCC[C@H]1[C@@H]1C[C@H](O)C3=C[C@@H](O)CC[C@]3(C)[C@H]1CC2 | 0.5 µM | 68 µM | –
Oc1c(F)c(F)c(-c2c(F)c(F)c(O)c(F)c2F)c(F)c1F | 1 µM | 0.3 µM | –
CC(C)=CCC1=C(O)[C@](O)(CC=C(C)C)C(=O)C(C(=O)C(C)C)=C1O | – | > 125 µM | –
C/C(=C\c1ccc(C(=O)O)cc1Br)c1ccc2c(c1)C(C)(C)CCC2(C)C | 6.1 µM | > 70 µM | –
C[C@]12CCC(=O)C[C@@H]1CC[C@@H]1[C@@H]2CC[C@]2(C)[C@@H](C(=O)CO)CC[C@@H]12 | 0.37 µM | 55 µM | –
COc1c(Cn2c(=O)ccn(CC(=O)O)c2=O)cc(Br)c(Br)c1Br | 0.45 µM | 3.6 µM | –

SMILES | IC50 [2] | IC50 [3] | also measured
C[C@H](CCC(=O)O)[C@H]1CC[C@H]2[C@@H]3C[C@@H](O)[C@@]4(O)C[C@@H](O)CC[C@]4(C)[C@H]3CC[C@]12C | 0.83 µM | > 100 µM | –
C[C@@]12CCC[C@H]1[C@@H]1CC(=O)C3=CC(=O)CC[C@]3(C)[C@H]1CC2 | 0.81 µM | 158 µM | –
C[C@H](CCC(=O)O)[C@H]1CC[C@H]2[C@@H]3C[C@@H](O)[C@@]4(O)C[C@@H](O)CC[C@]4(CO)[C@H]3CC[C@]12C | 0.76 µM | 5.4 µM | –
NC(=O)[C@@H]1C[C@]2(NC(=O)NC2=O)c2cc(F)ccc2O1 | 24 µM | – | IC50 [6]: 0.08 µM
O=C(/C=C/c1ccc(O)c(O)c1)c1ccc(O)cc1O [BUTEIN] | – | – | IC50 [1]: 0.5 µM
O=c1cc(-c2ccccc2)oc2cc(O)cc(O)c12 [CHRYSIN] | 2.1 µM | 0.29 µM | –
COc1cc(/C=C/C(=O)CC(=O)/C=C/c2ccc(O)c(OC)c2)ccc1O [CURCUMIN] | – | – | IC50 [1]: 7.3 µM
O=C(O)Cc1ccccc1Nc1c(Cl)cccc1Cl [DICLOFENAC] | – | – | IC50 [4]: > 100 µM
Cc1cc(O)c2c(c1)C(=O)c1cc(O)cc(O)c1C2=O [EMODIN] | – | – | IC50 [1]: 3.47 µM
C[C@]12CC[C@H](O)C[C@@H]1CC[C@@H]1[C@@H]2CC[C@]2(C)C(=O)CC[C@@H]12 [EPIANDROSTERONE] | 0.32 µM | 37 µM | –
C[C@]12CC[C@@H]3c4ccc(O)cc4CC[C@H]3[C@@H]1CC[C@@H]2O [ESTRADIOL] | 3 µM | 24 µM | –
C[C@]12CC[C@@H]3c4ccc(O)cc4CC[C@H]3[C@@H]1CCC2=O [ESTRONE] | 1.6 µM | 31 µM | –
Cc1cc(O)c2c(c1)C(=O)c1cc(O[C@@H]3O[C@@H](C)[C@H](O)[C@@H](O)[C@H]3O)cc(O)c1C2=O [FRANGULIN A] | – | – | IC50 [1]: 5.73 µM
Cc1cc(O)c2c(c1)C(=O)c1cc(O[C@@H]3OC[C@](O)(CO)[C@H]3O)cc(O)c1C2=O [FRANGULIN B] | – | – | IC50 [1]: 5.45 µM
O=c1c(-c2ccc(O)cc2)coc2cc(O)cc(O)c12 [GENISTEIN] | 5.5 µM | – | –
C[C@H](CCC(=O)O)[C@H]1CC[C@H]2[C@@H]3CC[C@@H]4C[C@@H](O)CC[C@]4(C)[C@H]3CC[C@]12C [ISOLITHOCHOLIC ACID] | 0.02 µM | – | –
C=CCc1ccc(O)c(-c2cc(CC=C)ccc2O)c1 [MAGNOLOL] | – | – | IC50 [1]: 28 µM
COc1c(O)cc2oc3cc(O)c(CC=C(C)C)c(O)c3c(=O)c2c1CC=C(C)C [MANGOSTIN] | – | – | IC50 [1]: 4.1 µM
CC1(C)CC[C@]2(C(=O)O)CC[C@]3(C)C(=CC[C@@H]4[C@@]5(C)C[C@@H](O)[C@H](O)C(C)(C)[C@@H]5CC[C@]43C)[C@@H]2C1 [MASLINIC ACID] | 0.6 µM | – | –
Cc1ccc(Cl)c(Nc2ccccc2C(=O)O)c1Cl [MECLOFENAMIC ACID] | – | – | IC50 [4]: > 100 µM; IC50 [5]: 9.8 µM
O=c1c(O)c(-c2cc(O)c(O)c(O)c2)oc2cc(O)cc(O)c12 [MYRICETIN] | – | 0.61 µM | –
O=c1c(O)c(-c2ccc(O)c(O)c2)oc2cc(O)cc(O)c12 [QUERCETIN] | 1.9 µM | – | –
Oc1ccc(/C=C/c2cc(O)cc(O)c2)cc1 [RESVERATROL] | – | – | IC50 [1]: 73 µM
CC(=O)[C@H]1CC[C@H]2[C@@H]3CC[C@H]4C[C@@H](O)CC[C@]4(C)[C@H]3CC[C@]12C [SEPRANOLONE] | 0.5 µM | 39 µM | –
COc1ccc2c(C(=S)N(C)CC(=O)O)cccc2c1C(F)(F)F [TOLRESTAT] | 0.05 µM | – | –
C[C@H](CCC(=O)O)[C@H]1CC[C@H]2[C@@H]3CC[C@@H]4CCCC[C@]4(C)[C@H]3CC[C@]12C [URSOCHOLANIC ACID] | 0.05 µM | 16 µM | –
